PubChem BioAssay (NCI)
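All cell lines were grown in 96-well plates and treated with compound for 48 hours. TGI denotes the concentration required for complete inhibition of growth.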 *1 amine or outer side, *2 acyl side, *3 side chain or, on linkers, in order; H or OH if unused. Where a SMILES comes first, the peptide text is derived from it. Bridges are numbered along the chain shown (N, C = ends). Roman numbers before positions name the chains, in order. [ ]: non-standard residue; d: D form. Actinocin(9to1) = Cc1c2oc3c(C)ccc(C(=O)[*:1])c3nc-2c(C(=O)[*:2])c(N)c1=O; NMeV = CN[CH](C(=O)O)C(C)C; Sar = CNCC(=O)O

Columns and labels:
Assay in all cases: growth of human tumour cells (NCI), 48 h
[1] = test system: 786-0 renal
[2] = test system: A549 NSCLC
[3] = test system: ACHN renal
[4] = test system: BT-549 breast
[5] = test system: IGROV1 ovarian
[6] = test system: OVCAR-3 ovarian
[7] = test system: OVCAR-8 ovarian
[8] = test system: RXF 393 renal
[9] = test system: SF-539 CNS
[10] = test system: T-47D breast
[11] = test system: HS 578T breast

| Compound | TGI [1] [µM] | TGI [2] [µM] | TGI [3] [µM] | TGI [4] [µM] | TGI [5] [µM] | TGI [6] [µM] | TGI [7] [µM] | TGI [8] [µM] | TGI [9] [µM] | TGI [10] [µM] | TGI [11] [µM] |
| --- | --- | --- | --- | --- | --- | --- | --- | --- | --- | --- | --- |
| CC(C)Oc1cc2c(cc1O)CC[C@@H]1[C@@H]2CC[C@]2(C)[C@@H](O)CC[C@@H]12 | 36.1 | 65.9 | > 84.7 | 52.7 | 42.9 | 12 | 60.6 | 17.2 | 6.93 | 35.7 |  |
| O=C(O)c1cc(Nc2c(O)c3c(c(O)c2Cl)C(=O)C=CC3=O)ccc1O | > 10 | > 10 | > 10 | > 10 | > 10 | > 10 | > 10 |  | > 10 | > 10 | > 10 |
| Cc1cccc(=O)c([O-])c1.Cc1cccc(=O)c([O-])c1.Cc1cccc(=O)c([O-])c1.Cc1cccc(=O)c([O-])c1.[Th+4] | > 78.5 | > 100 | > 100 |  | > 100 | > 22 | > 100 | > 100 | 54.3 |  |  |
| O=c1oc2ccccc2c(O)c1C(c1ccc(O)cc1)c1c(O)c2ccccc2oc1=O | > 100 |  | > 100 | > 100 | > 100 | > 100 | > 100 |  |  | > 100 | > 100 |
| NC(=O)CC[C@H]1C(=O)N=C(N)N1C(=O)OCc1ccccc1 | > 100 |  | > 100 | > 100 | > 100 | > 100 | > 100 | > 100 |  |  | > 100 |
| Oc1ccc(O)c(Sc2nnc(CCCCCCCCc3nnc(Sc4cc(O)ccc4O)o3)o2)c1 | 35.7 | > 100 | 85.9 | > 100 | > 100 |  |  |  |  |  |  |
| COc1ccc(C2C3=CONC3CC3CCCCC32)cc1 (stereo not drawn) | > 100 | > 100 | > 100 | > 100 | > 100 | > 100 | > 100 |  |  | > 100 |  |
| COC(C[C@H]1CCCC[C@]1(O)/C(=C\CO[Si](C(C)C)(C(C)C)C(C)C)Sc1ccccc1)OC | > 100 | > 100 | > 100 |  | > 100 |  | > 100 | 55.3 |  | 40.8 | > 100 |
| COc1ccc(C[C@H]2COC(=O)[C@@H]2Cc2ccccc2)cc1OC | > 100 | > 100 | > 100 |  | > 100 | > 100 | > 100 |  |  | > 100 | > 100 |
| Cc1ccc(Cl)c2c(=O)cc(-c3ccccc3)[nH]c12 | > 100 | > 100 | > 100 |  | > 100 |  | > 100 | > 100 | > 100 |  |  |
| COc1ccccc1NC(=O)CSC(N)=O | 36.6 | > 100 | > 100 |  | > 100 | > 100 | > 100 |  | 70.4 |  |  |
| C=C1CN=C(Nc2ccc(F)cc2F)S1 | > 100 | > 100 | > 100 |  | > 100 |  | > 100 |  | > 100 | > 100 | > 100 |
| CC(=O)c1cc(S(=O)(=O)c2ccc(O)c(C(C)=O)c2)ccc1O | > 100 | > 100 | > 100 | > 100 | > 100 | > 100 | > 100 | > 100 | > 100 | > 100 |  |
| N#C[C@H]1C(=O)C(c2nc3ccccc3[nH]2)S[C@H]1c1ccccc1 (stereo partly drawn) | 54.2 | > 100 | 57.6 | 92.4 | > 100 | > 100 | > 100 | 67.8 |  |  | > 100 |
| CCOC(=O)/C(C1=N[C@H](C(=O)OCC)CS1)=C(\O)c1ccccc1 |  | > 100 | > 100 |  | > 100 | > 100 | > 100 | > 100 |  |  |  |
| C/C(=N\NC(=O)c1ccncc1)c1cccc(C(F)(F)F)c1 |  | > 10 |  | > 10 | > 10 |  | > 10 |  | > 10 | > 10 | > 10 |
| CCC(C)C(NC(=O)C1CCCN1)C(=O)NC(C(=O)NCC(=O)NC(CC(N)=O)C(=O)NC(CC(C)C)C(=O)NC(CC(C)C)C(=O)NC(CCCCN)C(N)=O)C(C)C (stereo not drawn) (H-PIVGNLLK-NH2; configuration not given here) | > 75 | > 75 | > 75 | > 75 | > 75 | > 75 | > 75 |  | > 75 | > 75 | > 75 |
| Cc1ccc(C(=O)NN=C(/N=N/c2cccc(C)c2)c2ccc(N(C)C)cc2)cc1 | > 100 | > 100 | > 100 | > 100 | > 100 | > 100 | > 100 |  | > 100 | > 100 | > 100 |
| CCCCN(CCCC)C1=Nc2ccccc2-n2c(nnc2C(=O)OCC)C1 | > 100 | > 100 | > 100 |  | > 100 | > 100 | > 100 | 77.4 | > 100 | > 100 | > 100 |
| CC(=O)CCCCCCCCCCCC[C@@H]1CC[C@H](C)[C@H](O)N1 | > 100 | > 100 | > 100 |  | > 100 | > 100 | > 100 | > 100 |  |  |  |
| Cc1c2oc3c(C)ccc(C(=O)NC4C(=O)NC(Cc5ccc(O)cc5)C(=O)N5CCCC5C(=O)N(C)CC(=O)N(C)C(C(C)C)C(=O)OC4C)c3nc-2c(C(=O)NC2C(=O)NC(Cc3ccc(O)cc3)C(=O)N3CCCC3C(=O)N(C)CC(=O)N(C)C(C(C)C)C(=O)OC2C)c(N)c1=O (stereo not drawn) (I: TYP[Sar][NMeV] / II: TYP[Sar][NMeV]; ester I:1-I:C, II:1-II:C; linker I:N-II:N via Actinocin(9to1); configuration not given here) | > 74.9 | > 100 | > 100 |  | 32.6 | > 48.1 | > 100 | > 57.3 | > 100 | > 79.9 | 67.3 |
| Cn1c(O)c(/C=N/c2ncccn2)c(=O)[nH]c1=O | > 100 | > 100 | > 100 |  | > 100 | > 100 | > 100 |  | > 100 | > 100 | > 100 |
| CN1C(=O)C(CCO)(C(C)(C)C)c2ccccc21 (stereo not drawn) | > 100 | > 100 | > 100 |  |  | > 100 | > 100 | > 100 |  | > 100 | > 100 |

| Compound | TGI [1] [µM] | TGI [2] [µM] | TGI [3] [µM] | TGI [4] [µM] | TGI [5] [µM] | TGI [6] [µM] | TGI [7] [µM] | TGI [8] [µM] | TGI [9] [µM] | TGI [10] [µM] | TGI [11] [µM] |
| --- | --- | --- | --- | --- | --- | --- | --- | --- | --- | --- | --- |
| O=[N+]([O-])c1cccc([N+](=O)[O-])c1Cl | > 100 | 30 | 31.4 |  | 30.6 | 4.84 | 31.5 | 38.3 | 35 | 14.7 | 82.3 |
| CC(C)(C)C(=O)O[C@H]1C=C[C@@H](O)[C@@H]2[C@H]1[C@@H]1C=C[C@H]2C1 | > 100 | > 100 | > 100 | > 100 | > 100 | > 100 | > 100 |  | 92.9 | > 100 | > 100 |
| CC(C)NCCNC(=O)c1ccccc1Nc1c(Cl)cccc1Cl | 16 | 33.9 | 31.2 |  | 30.7 | 26.6 | 34.4 | 17 | 30.2 |  |  |
| O=C(NCCNCCO)N/N=C/c1ccccc1 | > 100 | > 100 | > 100 |  | > 100 | > 100 | > 100 | > 100 | > 100 |  |  |
| c1cc2c3c(c1)[C@@H]1O[C@@H]1c1cccc(c1-3)[C@@H]1O[C@H]21 | 75 | > 100 | 43 | 98.5 |  |  | 46.2 | 17.2 |  | 62.8 | 40 |
| O=C(c1ccccc1)c1ccc2nc(-c3c(Cl)c(Cl)c(Cl)c(Cl)c3C(=O)Nc3ccco3)[nH]c2c1 | > 100 | > 100 | > 100 | 74 | > 100 | > 100 | > 100 | > 100 |  | > 100 |  |
| COc1ccc(/C=N/N=C(\N)NO)c(OC)c1OC | > 100 | > 100 | 67.2 |  | > 100 | 67.3 | 41.9 | > 100 | 61.7 | 90.2 | > 100 |
| COC(C/C=C\C=C\CC/C=C/CC(C)/C=C/C(=C\C(=O)O)CC(=O)O)/C(C)=C\C=C(/C)C(=O)O (stereo not drawn) |  | > 100 |  | > 100 | > 100 | > 100 |  |  |  |  | > 100 |
| O=c1[nH]nc(N/N=C\c2ccc(Cl)cc2)c2ccccc12 | 30.6 | 41.6 | 37.8 |  | 37.2 | 30.2 | 54.8 | 56.2 | 47.6 | 69.2 | 62.7 |
| O=c1n(C2CCCCC2)c(=C(Cl)Cl)c(=C(Cl)Cl)n1C1CCCCC1 | > 100 | > 100 | > 100 |  | > 100 | > 100 | > 100 | > 100 | > 100 |  |  |
| Cc1sc2nc3n(sc4nc5sc(C)c(C)c5c(=O)n43)c(=O)c2c1C | > 100 | > 100 |  | > 100 | > 100 | > 100 | > 100 |  | > 100 | 12 | > 100 |
| CCCOC1OC(CS(=O)(=O)O)C(OC(C)=O)C(OC(C)=O)C1OC(C)=O (stereo not drawn) |  |  |  | > 100 | > 100 | > 100 | > 100 | > 100 |  | > 100 | > 100 |
| O=C1NC(=S)N/C1=C\c1ccc(Sc2ccccc2C(=O)O)s1 | > 100 |  | > 100 | > 100 | > 100 | > 100 | > 100 | > 100 |  | > 100 | > 100 |
| CCOC(=O)c1c(SCCN2CCCCC2)n(-c2ccccc2)c(=S)n(-c2ccccc2)c1=O | 28.1 | > 100 | 34.7 | 31.1 |  | 24.7 | 54.1 | 25.7 |  | 8.27 | 80.1 |
| S=c1oc(CCCCCCCCc2nn(CNc3ccc(Cl)cc3)c(=S)o2)nn1CNc1ccc(Cl)cc1 | > 100 | > 100 | > 100 | > 100 | > 100 |  |  | > 100 |  |  |  |
| C=C1CC(Cn2cc(Br)c(=O)[nH]c2=O)(c2ccc(Br)cc2)OC1=O (stereo not drawn) | 3.27 | 29 | 9.4 | 8.25 | 4.06 | > 35 | > 100 |  | 23.7 | 5.04 | > 32.4 |
| c1ccc2c(c1)ccc1nc(-c3ccc4c(c3)OCO4)c3c(c12)CCC3 | > 100 | > 100 | > 100 | > 100 |  | > 100 | > 100 |  | > 100 | > 100 | > 100 |
| Cc1cn(C2CC(SCCO)C(CO)O2)c(=O)[nH]c1=O (stereo not drawn) | > 100 | > 100 | > 100 | > 100 | > 100 | > 100 | > 100 | > 100 | > 100 | > 100 |  |
| O=C1C(Cl)C(c2cccc(O)c2)N1n1cnc2ccccc2c1=O (stereo not drawn) | > 100 | > 100 | > 100 |  | > 100 | > 100 | > 100 | > 100 |  |  |  |
| NNc1nnc(-c2ccccc2)nc1Cc1ccccc1 |  | > 100 | > 100 |  | > 100 | > 100 | 39.1 | > 100 | 64.1 |  |  |
| COc1c(-c2ccc(F)cc2)oc2cc(O)cc(O)c2c1=O | 99.2 | > 100 | 93.4 |  | > 100 | > 100 | 69.4 |  | 39.7 | 56.9 | > 100 |
| CCCCNC(=S)Nc1nc(C(=O)NNC(=S)NCc2ccccc2)cs1 | > 100 | > 100 | 78.5 | > 100 | > 100 | > 100 | > 100 |  | 68.6 | 59.3 |  |
